Legend:
Format in all cases: cell-based, human
[1] = system: control iPSC-derived ECs co-cultured with control iPSC-derived pericytes/mesenchymal cells; test: 2D endothelial-pericyte co-culture sprouting assay, control ECs; settings: for sprout formation / number of endothelial sprouts: SB431542 (10 μM in FIG. 20 legend); for total area covered by endothelial sprouts: SB431542
Method: (§1) The endothelial capillary-like network formation assay was carried out as previously described but with major modifications (Evensen et al., 2013). These included using both ECs and pericytes derived from human iPSC lines. This is described in more detail elsewhere (Orlova et al., manuscript in preparation). ECs were labelled with the general cytoplasmic labeling dye (PKH-26). For the sprouting assay, 12,000 ECs derived from both control and diseased lines were plated with 50,000 control iPSC-derived pericytes/well on 0.1% gelatin coated 96-well plates in EGM-2 (Lonza, CC-3162). Next day and on the day 4 of the assay, medium was replaced with new EGM-2 media containing tested compounds as indicated in the figure legends. Endothelial-pericyte co-culture was terminated on day 7 of the assay each well immunofluorescently stained for quantification, as follows: co-cultures were fixed with the 4% paraformaldehyde (PFA), permeabilized with the 0.1% TX-100 and blocked with the normal goat serum (Dako). Endothelial sprouts were visualized with the mouse anti-CD31 (Dako, 1:200). In some experiment with the mouse blocking antibodies, rabbit anti-CD31 (Scbt, 1:200) was used instead. Pericytes were visualized with antibodies against SM22 (Sigma, 1:200). The endothelial network was imaged with the BD Pathway 855 system using the 4× or 10× objective and 2×2 (or 3×3) Montage mode. Total area covered by the endothelial sprouts was quantified with the protocol developed within cell image analysis software CellProfiller (Broad Institute). High magnification images were acquired with the SP5 confocal microscope, using 10× and 40× objectives.
A two-dimensional co-culture system was first established in vitro consisting of control iPSC-derived ECs cultured with the control iPSC-derived mesenchymal cells (FIG. 10A). The protocol was optimized and adapted to the BD Pathway 855 imaging system, based on the protocol initially described for the co-culture of HUVECs and vascular SMCs (vSMCs) (Evensen et al., 2013). On day 7 of the co-culture, iPSC-derived EC had organized and formed spouts on the top mesenchymal cells, as evidenced by immunofluorescent staining with the EC-specific CD31 and SMC-specific SM22 markers (FIG. 10B).
(§2) Endothelial cell-pericyte co-culture was performed as described previously (Evensen et al., 2013) but using conditions optimized for iPSC-derived ECs and pericytes as described (Orlova et al., manuscript in preparation). In brief, 12,000 and 50,000 iPSC-derived ECs and pericytes were plated, respectively, in each well of a 96-well plate. Next day the co-cultures were refreshed with the specific treatment conditions indicated. The co-culture was fixed on day 7, and EC sprouts stained with anti-CD31 antibody (1:200, Dako) (as described in Orlova et al., manuscript in preparation). Pericytes were visualized with the anti-SM22 antibody (1:200, Abcam). The BD Pathway 855 system was used for automatic image acquisition, with the 4× objective and 2×2 (or in some cases 3×3) montage mode. CellProfiller (Broad Institute) custom pipeline was used for the image quantification.

[2] = system: HHT1-iPSC-derived ECs co-cultured with control iPSC-derived pericytes; test: 2D endothelial-pericyte co-culture sprouting assay, HHT1 patient ECs; settings: SB431542 added with TGFβ3 (1 ng/ml) or BMP9 (1 ng/ml); day 7; control and HHT1-iPSC ECs (FIG. 17)
Method: as §1
It was hypothesized that this system might be useful for distinguishing […] versus paracrine effects of endoglin deficiency in HHT1-iPSCs-derived ECs. Therefore, ECs from HHT-iPSC lines in the co-culture assay combined with the pericytes derived from the control iPSCs were examined. Little difference was observed between ECs from HHT1 and control iPSCs in co-culture. ECs from the patient harboring the 1083delAA and IVS 5+2 (T>C) mutation similar endothelial sprout formation as the controls (FIGS. 11A and 11B).
as §2

[3] = system: iPSC-derived pericytes/mesenchymal cells; test: Contractile smooth muscle marker expression in iPSC-derived pericytes/mesenchymal cells; settings: ALK5 inhibitor
Method: Our differentiation system facilitates simultaneous derivation and expansion of pericytes and ECs from iPSC lines. […] Thus, a renewable source of pericytes/SMCs was created for co-culture with ECs that would in principle be able to simulate endothelial-pericyte interaction in humans.
iPSC-derived pericytes/mesenchymal cells were derived from the CD31− fraction emerging during the endothelial differentiation protocol. CD31− cells were plated on gelatin coated plates in EGM-2 media (Lonza). After 4 days medium was replaced by DMEM+10% FBS supplemented with TGFβ3 (2 ng/ml, Peprotech) and PDGF-BB (4 ng/ml, Peprotech). iPSC-derived pericytes were routinely maintained on gelatin-coated plates in DMEM+10% FBS. Cells were characterized for the expression of pericyte and mesenchymal cell-specific markers by flow cytometry and immunofluorescent staining as describe above.
ECs and pericytes were cultured as described above on gelatin coated coverslips. Cells were fixed with 4% PFA, permeabilized and stained with the following antibodies as described (Orlova et al., Manuscript in preparation): anti-Ve-Cadherin (1:200, CellSignaling), anti-vWF (1:200, Dako), anti-CD31 (1:200, Dako), anti-SM22a (1:200, Abcam), anti-SMA (1:400, Sigma), anti-CNN1 (1:200, Sigma).

[4] = day 7, listed as ALK5 inhibitor

## NC(=O)c1ccc(-c2nc(-c3ccc4c(c3)OCO4)c(-c3ccccn3)[nH]2)cc1 [SB431542, reference compound]
[1]; ALK5 inhibitor, day 7, confocal imaging and quantification
  SM22 fluorescence intensity in endothelial-pericyte co-culture: increase in SM22 fluorescence intensity
[1]; SB431542 10 μM, day 7 co-culture
  endothelial cell proliferation (Ki67+ ECs): Increased endothelial cell proliferation
[1]; day 7
  sprout formation / number of endothelial sprouts: enhancement of sprout formation
  total area covered by endothelial sprouts: increase in the total area covered by endothelial sprouts
[1]; [4]
  sprout formation / number of endothelial sprouts: significant increase in number of endothelial sprouts
  total area covered by endothelial sprouts: significant increase
[2]
  rescue of ligand-induced inhibition of sprout formation: rescued the inhibitory effect of both TGFβ3 and BMP-9
[3]
  SM22 expression in pericytes: no effect on SM22 expression in pericytes

— patent US10119122B2, “Differentiation and expansion of endothelial cells from pluripotent stem cells and the in vitro formation of vasculature like structures” (Academisch Ziekenhuis Leiden, priority 2013, dated 2018)
